Reference: US20170246144A1, “METHOD OF PREVENTING OR TREATING SPINOCEREBELLAR ATAXIA BY ADMINISTRATING SILIBININ” (National Taiwan Normal University, priority 2016, published 2017)
Like-named read-outs stand apart in the source and are kept apart here.

Columns and labels:
SH-SY5Y cells [1] = experiment: Western blotting of cleaved caspase-9, cleaved caspase-3 and cleaved PARP after MSG; assay type: cell-based, Human; settings: 15 μM, 100 mM MSG, 24 hours
Method: FIGS. 5A-5D show the effects of SB on the levels of cleaved caspase-9, cleaved caspase-3, and cleaved poly(ADP-ribose) polymerase (PARP) in SH-SY5Y cells treated with MSG FIG. 5A: The levels of […] in 1×10^6 SH-SY5Y cells were measured by western blotting, wherein the control group (Ctrl) was untreated SH-SY5Y cells or the cells were treated with 100 mM MSG, 100 mM MSG+15 μM SB or 100 mM MSG+10 μM MK801 (MK) for 24 hours. Actin was used as a loading control. FIGS. 5B-5D show the quantification results measured by western blotting. Data were the mean values of three independent experiments.
Caspase belongs to cysteine protease family which is typically closely related to apoptosis, wherein the activation of caspase-9, caspase-3 and […] PARP is associated with delayed excitotoxicity damages. Therefore, western blotting was performed to analyze whether silibinin can protect SH-SY5Y cells from death via caspase-dependent apoptosis pathway in the present embodiment.

SH-SY5Y cells [2] = experiment: JC-1 flow cytometry of mitochondria membrane potential (MMP); assay type: cell-based, Human; settings: 15 μM + 100 mM MSG
Method: FIGS. 7A and 7B show the effects of SB on mitochondria membrane potential (MMP) in SH-SY5Y cells treated with MSG measured by JC-1 staining with a flow cytometry, wherein the control group (Ctrl) was untreated SH-SY5Y cells or the cells were treated with 100 mM MSG, 100 mM MSG+15 μM SB, 100 mM MSG+10 μM MK801 (MK) or 5 μM CCCP (disruptor of electron transport chain) for 12 hours. […] The results were shown as mean±SEM, n=3, *p<0.05, comparing to the MSG treatment group.
In the present embodiment, flow cytometry analysis was used to investigate whether silibinin can prevent the reduction of mitochondria membrane potential induced by glutamate in SH-SY5Y cells.
SH-SY5Y cells were seeded in 6 centimeter dish (1×10^6 cells/plate) for 24 hours, and then were pre-treated with 15 μM silibinin or 10 μM MK-801 for 1 hour followed by the treatment of 100 mM MSG for 12 hours. 5 μM carbonyl cyanide m-chlorophenylhydrazone (CCCP) was added to the positive control group to induce the depolarization of mitochondria membrane potential.
The treated cells were washed, centrifuged and collected, followed by PBS wash and JC-1 dye staining for 30 minutes. The stained cells were re-suspended using phosphate buffer solution and analyzed by a flow cytometry to obtain a 2-dimensional scatter plot. 10,000 cells were recorded for each experiment.

nTBP/Q79-EGFP cells [3] = experiment: Western blotting of caspase family proteins in Dox-induced nTBP/Q79-EGFP cells; assay type: cell-based; settings: Homo sapiens, 120 h, Dox 5 days
Method: FIGS. 8A-8C show the effects of SB on improving the viability of nTBP/Q79-EGFP cells and inhibiting the expression levels of cleaved caspase-9, cleaved caspase-3, and cleaved PARP in nTBP/Q79-EGFP cells induced by doxycycline (Dox). FIG. 8A: The viabilities of 1.0×10^6 nTBP/Q36-EGFP cells and nTBP/Q79-EGFP cells which were pretreated with 15 μM SB for 1 hour followed by the induction of Dox for 1, 3, and 5 days were measured by MTT assay. FIG. 8B: 1.0×10^6 nTBP/Q36-EGFP cells and nTBP/Q79-EGFP cells were pretreated with 15 μM SB for 1 hour followed by the induction of Dox for 5 days. The levels of cleaved caspase-9, cleaved caspase-3, and cleaved PARP were detected by western blotting. Actin was used as a loading control. […] The results were shown as mean±SD, n=3, *p<0.05, comparing to the Dox group.
Western blotting was used to determine whether silibinin can inhibit cell death due to the expression of nTBP/Q79-EGFP via caspase-dependent apoptosis pathway.
nTBP/Q36-EGFP cells and nTBP/Q79-EGFP cells were treated with 15 μM silibinin for 1 hour followed by the treatment of 10 μg/mL Dox and RA for 5 days.

nTBP/Q79-EGFP cells [4] = experiment: Dot blot and western blotting of protein aggregation, anti-TBP (N12); assay type: cell-based, Human; settings: 15 μM, Dox 5 days
Method: FIGS. 9A-9C show the effects of SB on protein aggregation in nTBP/Q79-EGFP cells after the induction of Dox, which were analyzed by western blotting and dot blot assays. 1.0×10^6 nTBP/Q36-EGFP cells or nTBP/Q79-EGFP cells were pretreated with 15 μM SB for 1 hour followed by the treatment of 10 μg/mL Dox. Cell lysates were analyzed using western blotting and dot blot assays with anti-TBP (N12) antibody. […] The values represent means±SD. Data were the mean values of three independent experiments.
In the present example, dot blot and western blotting methods were used to analyze whether silibinin can reduce the protein aggregation in nTBP/Q79-EGFP cells induced by Dox.
nTBP/Q36-EGFP cells and nTBP/Q79-EGFP cells were cultured in 6 cm petri-dish for 24 hours followed by the treatment of 15 μM silibinin for 1 hour and the treatment of […] and 10 μM RA for 5 days. The proteins were extracted from the treated cells and analyzed by dot blot and western blotting, wherein the primary antibody is TBP(N-12) antibody and the secondary antibody is HRP conjugated anti-rabbit antibody.

SCA17 transgenic mice = experiment: Western blotting of TBP/polyQ aggregation and cleaved caspase 3 in cerebellum of SCA17 mice; assay type: in vivo; settings: 4.5 mg/kg i.p. once every 2 days, 20 weeks old
Method: FIGS. 11A and 11B show the effects of SB on the levels of TBP (N12) and cleaved caspase-3 in SCA17 transgenic mice. Mice were grouped into wild type-saline (WT-saline), transgenic-saline (TG-saline), and transgenic-SB treatment (TG-SB) groups. Mice were injected intraperitoneally with saline or SB (4.5 mg/kg) at 8-week old once every 2 days. FIG. 11A: The extent of TBP aggregation (detected with TBP (N12) antibody) and the levels of cleaved caspase-3 in the cerebella of mice were measured by western blotting at 20-week old. Actin was used as a loading control. […] The results were shown as mean±SEM, n=6, *p<0.05, comparing to the TG-saline group.
Since the SCA17 mice were 8 weeks old, the mice were injected intraperitoneally with silibinin in saline at 4.5 mg/kg once every 2 days, designated as TG_SB group. The mice in TG_saline group were injected with same amount of saline.
In order to understand whether silibinin can reduce TBP/polyQ protein aggregation and the expression of cleaved-caspase 3 in the cerebellum of SCA17 mouse, TBP/polyQ protein aggregation and the expression of cleaved-caspase 3 in the cerebellum of SCA17 mouse were measured. […]

COc1cc(C2Oc3cc([C@H]4Oc5cc(O)cc(O)c5C(=O)[C@@H]4O)ccc3OC2CO)ccc1O (some centres unmarked) [silibinin]
reduction of cleaved PARP level, compared to the increased level with MSG only (SH-SY5Y cells [1]): 52%
reduction of cleaved-caspase-3 level, compared to the increased level with MSG only (SH-SY5Y cells [1]): 83%
reduction of cleaved-caspase-9 level, compared to the increased level with MSG only (SH-SY5Y cells [1]): 125%
MMP compared to Ctrl (SH-SY5Y cells [2]): 85+13%
inhibition at 15 µM (nTBP/Q79-EGFP cells [3]; read-out: inhibition of cleaved-PARP level): ~44%
inhibition at 15 µM (nTBP/Q79-EGFP cells [3]; read-out: inhibition of cleaved-caspase-3 level): ~100%
inhibition at 15 µM (nTBP/Q79-EGFP cells [3]; read-out: inhibition of cleaved-caspase-9 level): ~88%
reduction of protein aggregation, dot blot (nTBP/Q79-EGFP cells [4]): 67%
reduction of protein aggregation, western blotting (nTBP/Q79-EGFP cells [4]): 90%
inhibition of TBP/polyQ protein aggregation in cerebellum (SCA17 transgenic mice): 100%
inhibition of cleaved caspase 3 protein level in cerebellum (SCA17 transgenic mice): 25%
